Assay results: PubChem BioAssay AID1996
Values after ≈ are worked out from the molar mass of the structure shown.

settings: buffer; pH 7.4; 200.0 µM

| Structure (SMILES) | solubility kinetic [µg/mL] |
| --- | --- |
| CCN1C(=O)CC(c2ccc(OC(C)C)cc2)C1=O (stereo not drawn) | > 39.2 |
| CC(C)CCN(C(=S)Nc1cccc(F)c1)C1CCN(C(C)C)CC1 | 48.2 (≈ 132 µM) |
| O=C1NC(=O)C(=Cc2ccc(-c3ccccc3[N+](=O)[O-])o2)C(=O)N1 | 44.2 (≈ 135 µM) |
| COC(=O)CC1C(=O)NCCN1C(=O)Nc1cccc(Cl)c1 (stereo not drawn) | 48.8 (≈ 150 µM) |
| C=CCc1cccc2cc(C(=O)Nc3ccc(NC(C)=O)cc3)c(=O)oc12 | 1.7 (≈ 4.69 µM) |
| Cn1cccc1C(=O)OCC(=O)NCCc1ccccc1 | > 42.9 |
| O=C(O)c1ccc(S(=O)(=O)N(Cc2cccs2)CC2CCCO2)cc1 (stereo not drawn) | > 57.2 |
| Cc1ccc2c(c1)c1ncn(Cc3ccc(F)cc3)c(=O)c1n2C | 0.3 (≈ 0.934 µM) |
| COC(=O)c1sccc1NC(=O)CSc1ccccc1N | 20.8 (≈ 64.5 µM) |
| Cc1ccc(-c2nc(N)s[n+]2-c2ccccc2)cc1.[Br-] | 21 |
| COCCOC(=O)C1=C(C)NC(=S)NC1c1cccs1 (stereo not drawn) | > 46.9 |
| Cc1ccc(Sc2ccc(S(=O)(=O)Nc3ccc(C(=O)O)cc3)cc2)cc1C | > 62 |
| COc1ccccc1NC(=O)c1coc(=O)c(Br)c1 | 5.4 (≈ 16.7 µM) |
| Cc1ccc(CNC(=S)N2CCOCC2)cc1 | > 37.6 |
| COc1ccc(CCNC(=O)c2cc(Cl)nc3ccccc23)cc1 | 5.9 (≈ 17.3 µM) |
| CC(=O)NC(Cc1c[nH]c2ccccc12)C(=O)NCc1ccco1 (stereo not drawn) | > 48.8 |
| CN(C)c1cc(-c2ccc([N+](=O)[O-])cc2)oc(=O)c1Cl | 0.9 (≈ 3.05 µM) |
| COc1ccc(S(=O)(=O)N2CCOCC2)cc1NC(=O)COc1ccc2c(C)cc(=O)oc2c1 | 4.1 (≈ 8.39 µM) |
| O=C(COc1ccc2ccccc2c1)Nc1cccnc1Cl | < 0.3 |
| CCOc1ccc(CNc2ncc(-c3ccccc3)n2C)cc1 | 26 (≈ 84.6 µM) |

| Structure (SMILES) | solubility kinetic [µg/mL] |
| --- | --- |
| c1ccc(CCN2CCC3(CC2)OCCO3)cc1 | 29.2 (≈ 118 µM) |
| CSC1=C(C#N)C(=O)NC(c2ccccc2O)S1 (stereo not drawn) | > 41.8 |
| O=C(Nc1cccc(S(=O)(=O)N2CCCC2)c1)c1cncc(Br)c1 | 60.4 (≈ 147 µM) |
| COc1ccc2c(c1)c1ncn(Cc3ccc(F)cc3)c(=O)c1n2C | 2.5 (≈ 7.41 µM) |
| CC1CCC(C(=O)NC(C(=O)Nc2ccccn2)C(C)C)CC1 (stereo not drawn) | 13.5 (≈ 42.5 µM) |
| CC(C)(C#CC(O)(c1ccccc1)c1ccccc1)N1CCCC1.Cl | > 53.4 |
| CCOc1ccc(C(=O)OCC(=O)Nc2cccnc2Cl)cc1OCC | 19 (≈ 50.2 µM) |
| COC(=O)[C@H](CC(C)C)NC(=O)N1CCCCC1C (stereo partly drawn) | > 40.6 |
| CCOc1cc(/C=C\[N+](=O)[O-])ccc1OCC(=O)N1CCOCC1 | 24.5 (≈ 72.8 µM) |
| Cc1ccc(C(=O)NC(C)C2CC3CCC2C3)c(C)c1 (stereo not drawn) | 29.9 (≈ 110 µM) |
| O=S(=O)(c1cccc2ccccc12)N1CCCCC1 | 17.3 (≈ 62.8 µM) |
| C[C@H](NC(=O)c1ccccc1)C(=O)OCC(=O)Nc1sccc1C(N)=O | > 56.3 |
| CC1CC(C)CN(C(=O)C(C)N2CCN(S(=O)(=O)c3ccccc3F)CC2)C1 (stereo not drawn) | 51.7 (≈ 126 µM) |
| O=[N+]([O-])c1cc(C(F)(F)F)ccc1N1CCN(CCO)CC1 | > 47.9 |
| CCOc1ccccc1NC(=S)NC1CC2CCC1C2 (stereo not drawn) | 5 (≈ 17.2 µM) |
| COc1ccc(C(=O)NCCc2c[nH]c3ccccc23)cc1 | 42.6 (≈ 145 µM) |
| CN(C)S(=O)(=O)c1cccc(NC(=O)c2ccc(N3CCCC3=O)cc2)c1 | 5.7 (≈ 14.7 µM) |
| COc1ccc(N2CCN(C(CNS(=O)(=O)c3ccc(C)cc3)c3ccccc3)CC2)cc1 (stereo not drawn) | 1.4 (≈ 3.01 µM) |
| COc1ccc(NS(=O)(=O)c2ccc(N3CCCCC3)c(NC(=O)C(C)NC(N)=O)c2)cc1 (stereo not drawn) | > 71.3 |
| CCC(=O)c1ccc(OCC(=O)Nc2ccc3c(c2)OCCO3)cc1 | 12.2 (≈ 35.7 µM) |

| Structure (SMILES) | solubility kinetic [µg/mL] |
| --- | --- |
| CCOC(=O)C1=C(C)N=C2SC(C)C(=O)N2C1c1ccccc1 (stereo not drawn) | 48.5 (≈ 147 µM) |
| CC(=O)N1CCN(C(=O)c2ccc(Cl)c(S(=O)(=O)N3CCCC3)c2)CC1 | > 60 |
| O=C(COc1ccc(F)cc1Br)NCC1COc2ccccc2O1 (stereo not drawn) | 17.5 (≈ 44.2 µM) |
| O=C(COC(=O)c1ccccc1F)NC(=O)NC1CCCC1 | > 46.2 |
| O=C1C2C3CCC(C3)C2C(=O)N1c1ccc2ccccc2c1 (stereo not drawn) | 5 (≈ 17.2 µM) |
| Cc1ccc(NS(=O)(=O)c2cccc3nsnc23)cc1 | 36 (≈ 118 µM) |
| COc1ccccc1C(=O)NC(=O)COC(=O)C1CC1C (stereo not drawn) | > 43.7 |
| O=C(NCCc1nnc2ccccn12)c1cccs1 | > 40.8 |
| NC(=O)c1ccsc1NC(=O)COC(=O)c1cccnc1Cl | 4.7 (≈ 13.8 µM) |
| Cc1cc(C(=O)N2CCN(c3ccccc3Cl)CC2)c(C)o1 | > 47.8 |
| CCc1cccc(C)c1NC(=O)C1CCCN(S(C)(=O)=O)C1 (stereo not drawn) | > 48.7 |
| O=C(COC(=O)Cc1ccccc1[N+](=O)[O-])NCC1CCCCC1 | 10.8 (≈ 32.3 µM) |
| O=C(O)c1ccc(S(=O)(=O)N2CCSCC2)cc1 | 42.9 (≈ 149 µM) |
| CCn1c(N2CCN(C(=O)c3ccco3)CC2)nc2ccccc21 | 35.8 (≈ 110 µM) |
| COC(=O)c1cccc(NC(=O)NC(=O)c2ccccc2Cl)c1 | 0.6 (≈ 1.8 µM) |
| Cc1cc(C(=O)COc2ccccc2C(N)=O)c(C)n1C1CC1 | 7 (≈ 22.4 µM) |
| O=[N+]([O-])c1ccc(Cl)cc1N1CCOCC1 | > 36.4 |
| COCCCNC(=O)c1cn(C)c(=O)c2c1c1ccccc1n2C | 19.8 (≈ 60.5 µM) |
